This data set in a line: gradient 5% acetonitrile 3 min, to 50% in 2 min, to 85% in 15 min, held 3 min, 100 µL/min. Conditions: column: Zorbax Extend-C18 2.1 x 50 mm; eluents: water / acetonitrile, 0.1% formic acid. A digest of the protocol: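 Pure standards were run in mixtures of ~100 molecules by HPLC coupled to a quadrupole time-of-flight mass spectrometer. The column was a Zorbax Extend-C18 (2.1 × 50 mm, 1.8 μm) at 100 μL/min, with water and acetonitrile each containing 0.1% formic acid, in positive and negative ionization mode. Dead and dwell volumes were 40 μL and 900 μL. Retention time was taken from computationally picked adduct peaks, each manually inspected, with data collected over 3 months.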
`COC(=O)Cn1c(=O)oc2cc(S(=O)(=O)N3CCN(c4ccccn4)CC3)ccc21` registered an RP-LC retention time of 624 s.

Turning to `CN(CCOC(=O)c1cccs1)Cc1ccccc1`, the RP-LC retention time amounted to 623 s.

As to `C[C@H](CCC(=O)NCCS(=O)(=O)O)[C@H]1CC[C@H]2[C@@H]3CC[C@@H]4C[C@H](O)CC[C@]4(C)[C@H]3C[C@H](O)[C@]12C`, the RP-LC retention time was 724 s.

With `COc1cc(Cl)ccc1C(=O)NC1CCN(c2cc(-c3cccs3)[nH]n2)C1` (stereo not drawn), the RP-LC retention time amounted to 795 s.

In turn, `COc1ccc(C(C)NC(=O)Cn2c(=O)nc(-c3ccccc3)c3ccccc32)cc1OC` (stereo not drawn) registered an RP-LC retention time of 697 s.

As to `COc1ccc(C)cc1NC(=O)C1CC(=O)N(c2ccc3c(c2)CCN3C(=O)C2CC2)C1` (stereo not drawn), the RP-LC retention time came out at 836 s.

As to `COc1ccc(N2CCN(c3cc(SCC(=O)Nc4cccc(Cl)c4)ncn3)CC2)cc1`, the RP-LC retention time is 1030 s.

Compound `O=C(CCn1nnc2cc(-c3noc(-c4ccc(C(F)(F)F)cc4)n3)ccc21)N1CCOCC1` showed an RP-LC retention time of 974 s.

`Cn1cc(CN2CCC(C(=O)NCC3CCN(Cc4cccc(F)c4)CC3)CC2)c2ccccc21` displayed an RP-LC retention time of 572 s.

The compound `Cc1c(F)cccc1NC(=O)N1CCCC(Cn2cnc3cccnc32)C1` (stereo not drawn) displayed an RP-LC retention time of 709 s.

`Cc1cnc(C2CCC2)n1C1CCN(C(=O)C2(c3ccccc3)CC2)CC1` showed an RP-LC retention time of 663 s.

`COc1ccc(NC(=O)N2CCCC2c2nc(-c3cccc(C)c3)no2)cc1` (stereo not drawn) registered an RP-LC retention time of 827 s.

For `CCSc1nnc(-c2nn(C)c3c2CN(S(=O)(=O)Cc2ccccc2Cl)CC3)n1CC`, the RP-LC retention time came out at 960 s.

`COc1cc(OC)cc(-c2nc(-c3ccc4c(c3)ncn4CCN3CCCC3)no2)c1` registered an RP-LC retention time of 684 s.

As to `Cc1ccc(NC(=O)N2CCN(c3ccc(=O)n(-c4ccccc4)n3)CC2)cc1`, the RP-LC retention time stood at 674 s.

Consider `Cc1csc(-c2cc(S(=O)(=O)N3CCN(c4ncccn4)CC3)c(C)n2C)n1`, for which the RP-LC retention time turned out to be 958 s.

Regarding `CCCNC(=O)c1cccc2c1CCN2C(C)=O`, the RP-LC retention time turned out to be 633 s.

In turn, `COCCN1C(=O)c2cc(-c3ccc(OC)cc3)nn2CC1(C)C(=O)NCc1ccccc1OC` (stereo not drawn) showed an RP-LC retention time of 853 s.

The compound `CCS(=O)(=O)c1nc2ccc(NS(=O)(=O)c3cnc[nH]3)cc2s1` gave an RP-LC retention time of 652 s.

`Cc1sc(NC(=O)C2CCCCC2)nc1-c1ccc2c(c1)N(C)C(=O)CO2` gave an RP-LC retention time of 1040 s.

`CC1Cc2cc(-c3cc(CNC(=O)c4ccccc4C(F)(F)F)no3)ccc2O1` (stereo not drawn) came in with an RP-LC retention time of 875 s.

With `Cn1cnc(S(=O)(=O)N2CCC(C(=O)Nc3ccc4c(c3)OCCO4)CC2)c1`, the RP-LC retention time is 663 s.

The compound `COc1ccc(NC(=O)NCC23CCCC=C2N(C)C(=O)CC3)cc1` (stereo not drawn) yielded an RP-LC retention time of 740 s.

As for `CC(NC(=O)c1ccccc1)C(=O)N1CCN(c2cc(C(C)C)n3cnnc3n2)CC1` (stereo not drawn), the RP-LC retention time was 604 s.

On to `Cc1cccc(-c2noc(C3CC(=O)N(c4ccc5c(c4)OCCO5)C3)n2)c1` (stereo not drawn), for which the RP-LC retention time came to 980 s.

`O=C(Cc1cc(-c2cc3ccccc3o2)on1)NCCc1c[nH]c2ccccc12`: the RP-LC retention time came to 883 s.

`Cc1ccc(S(=O)(=O)Nc2ccc(Nc3cc(-n4cccn4)ncn3)cc2)c(C)c1`: the RP-LC retention time stood at 888 s.

Turning to `O=C(c1nccc2ccccc12)N1CCC(Nc2ncnc3c2CCC3)C1` (stereo not drawn), the RP-LC retention time was 537 s.

`Cc1ccc(C(=O)N2CCC(Nc3ncnc4c3CCC4)C2)s1` (stereo not drawn) yielded an RP-LC retention time of 585 s.

Turning to `Cc1ccc(C)c(NC(=O)C2CCC(=O)N2S(=O)(=O)c2ccc(C)c(C)c2)c1` (stereo not drawn), the RP-LC retention time came to 962 s.

Consider `COCCN1C(=O)CCc2cc(NC(=O)c3ccc(Br)o3)ccc21`, for which the RP-LC retention time came to 721 s.

Take `CCOC(=O)c1nnc2c(-c3ccc(Br)cc3)c(C)nn2c1C`: the RP-LC retention time was 1100 s.

Regarding `Cc1ccn2cc(-c3ccc(NC(=O)c4cccs4)cc3)nc2n1`, the RP-LC retention time is 636 s.

Regarding `COc1ccc(Cc2nc(-c3cccc(-c4ccn[nH]4)c3)no2)cc1`, the RP-LC retention time worked out at 911 s.

Regarding `COc1ccc(N2CCN(c3cc(C(=O)O)c4cc(NC(C)=O)ccc4n3)CC2)cc1`, the RP-LC retention time was found to be 599 s.

In turn, `Cc1cc2c(c(=O)n(-c3ccccc3)c(=O)n2CC(=O)Nc2ccccc2C(F)(F)F)n1C` showed an RP-LC retention time of 904 s.

Regarding `CSc1nnc(CCc2c(C)[nH]c(=O)[nH]c2=O)o1`, the RP-LC retention time was 549 s.

Regarding `CC(C)n1c(=O)c(NCCCc2ccccc2)nc2ccncc21`, the RP-LC retention time was 707 s.

For `CCOC(=O)C1CCCN(Cc2nc3nc(C)cc(N4CCCC4)n3n2)C1` (stereo not drawn), the RP-LC retention time was 579 s.

In turn, `COc1ccc(OC)c(CNC(=O)c2cc3c(=O)n(C)ccc3n2C)c1` had an RP-LC retention time of 692 s.

In turn, `COc1ccc(F)cc1S(=O)(=O)N1CC(c2nc(-c3ccsc3)nn2C)C1` returned an RP-LC retention time of 841 s.

`CCC(C)NC(=O)C1CCN(c2cnn(Cc3ccccc3)c(=O)c2)CC1` (stereo not drawn) registered an RP-LC retention time of 721 s.

Regarding `CC(C)C(=O)Nc1ccc(-n2cnc(C(=O)N3CCN(C4CCCCC4)CC3)c2)nc1`, the RP-LC retention time stood at 601 s.

The compound `CCCNC(=O)C1CC(=O)N(c2n[nH]c3cccc(F)c23)C1` (stereo not drawn) registered an RP-LC retention time of 626 s.

`O=c1n(Cc2ccccc2)nc2ccc(S(=O)(=O)N3CCOCC3)cn12` returned an RP-LC retention time of 778 s.

In turn, `CCN(CC)c1nc(-c2cccc(C)c2)nnc1C` had an RP-LC retention time of 719 s.

`CCc1nn2c(CNS(=O)(=O)c3ccccc3)c(-c3ccccc3)nc2s1` yielded an RP-LC retention time of 901 s.

`Cc1ccsc1C(=O)N1CCC(Nc2ncnc3c2CCC3)CC1` gave an RP-LC retention time of 778 s.

The compound `CCOc1ccccc1C(=O)Nc1ccc2c(c1)Sc1ncccc1C(=O)N2CC` showed an RP-LC retention time of 822 s.

With `Cc1cc2nn(CC(=O)Nc3ccc(C(C)C)cc3)c(=O)n2c(-c2ccccc2)n1`, the RP-LC retention time worked out at 862 s.

In turn, `Cc1cc(N2CCN(C(=O)c3ccc(Cl)cc3)CC2)nc(N2CCOCC2)n1` showed an RP-LC retention time of 639 s.

As to `COC1CCC12CCN(C(=O)c1cnn(C)c1)CC2` (stereo not drawn), the RP-LC retention time was 642 s.

Compound `O=c1c2cnc3nc(-c4ccccc4Cl)nn3c2ccn1-c1ncn[nH]1` came in with an RP-LC retention time of 670 s.

In the case of `CC(=O)N1CCc2c(c(CNC(=O)c3cncn3C)nn2C)C1`, the RP-LC retention time turned out to be 558 s.

With `O=C(NC1CCCCCC1)C1CCCN(c2ncc(-c3ccc(F)cc3)cn2)C1` (stereo not drawn), the RP-LC retention time is 1150 s.

Compound `Cc1noc(-c2cccc(OC3CN(C(=O)Nc4cccc(F)c4)C3)c2)n1` returned an RP-LC retention time of 923 s.

Regarding `O=C(Cn1nc2c(N3CCSCC3)nccn2c1=O)NCCC1=CCCCC1`, the RP-LC retention time came out at 861 s.

The compound `COc1ccc(C2CC(=O)Nc3c(C(=O)O)cn(-c4ccc(F)cc4)c32)cc1OC` (stereo not drawn) yielded an RP-LC retention time of 734 s.

Turning to `O=C(CN1CCCc2nc(C3CC3)ncc2C1=O)NCc1ccco1`, the RP-LC retention time stood at 663 s.

For `CCn1cc(CCNS(=O)(=O)CC)c2cccnc21`, the RP-LC retention time stood at 630 s.

Compound `O=C(C1CCN(c2cnn(Cc3ccccc3)c(=O)c2)CC1)N1CCCCC1` had an RP-LC retention time of 761 s.

In turn, `CC(=O)N1CCc2cc(N3CC(C(=O)N4CCN(C5CCCCC5)CC4)CC3=O)ccc21` (stereo not drawn) came in with an RP-LC retention time of 578 s.

As to `Cc1ccc(F)cc1S(=O)(=O)N1CCC(n2c(-c3ccco3)nc3cccnc32)C1` (stereo not drawn), the RP-LC retention time worked out at 910 s.

Take `C/C(=C\c1csc(C)n1)C1C[C@@H]2O[C@@H]2CCC[C@H](C)[C@H](O)[C@@H](C)C(=O)C(C)(C)[C@@H](O)CC(=O)O1` (stereo partly drawn): the RP-LC retention time came out at 874 s.

`O=C(NC1CCCC1)N1CC(Oc2ccccc2-c2nc(-c3ccccc3)no2)C1` gave an RP-LC retention time of 1010 s.

`CCc1noc(NC(C)=O)c1-c1ccc(C)c(S(=O)(=O)N2CCN(c3ccc(OC)cc3)CC2)c1` displayed an RP-LC retention time of 919 s.

Regarding `Cn1c(CNc2nc3ccncc3n(Cc3ccccc3)c2=O)nc2ccccc21`, the RP-LC retention time is 571 s.

Turning to `CCOC(=O)c1cccc(NC(=O)N2CCc3nc[nH]c3C2)c1`, the RP-LC retention time amounted to 601 s.

Turning to `Cc1ccc(CNC(=O)C2(C)CN(S(C)(=O)=O)CC(=O)N2c2cc(C)cc(C)c2)cc1` (stereo not drawn), the RP-LC retention time was 860 s.

In turn, `CC(=O)Nc1ccc(C2(C(=O)NCc3ccccc3C)CCC2)cc1` displayed an RP-LC retention time of 791 s.

As for `COc1cccc(CNS(=O)(=O)c2ccc(-c3c(C)noc3C)cc2)c1`, the RP-LC retention time stood at 904 s.

Compound `O=C(NCC(c1ccccc1)c1c[nH]c2ccccc12)NC1CCCCC1` (stereo not drawn) came in with an RP-LC retention time of 976 s.

For `COc1ccc(Cl)cc1S(=O)(=O)N1CCC(C(=O)NCCC2=CCCCC2)CC1`, the RP-LC retention time is 994 s.

In the case of `CCC(C(=O)NCCOC)n1nc(C)c2nn(-c3ccccc3)c(C)c2c1=O` (stereo not drawn), the RP-LC retention time was determined as 763 s.

Regarding `O=C(c1ccc(Cl)cc1)N1CCN(c2nc(CN3CCCCC3)cs2)CC1`, the RP-LC retention time came out at 808 s.

Compound `O=C(NCCc1ccc(Cl)cc1)C1CCN(C(=O)c2cccn2-c2cccnc2)CC1` registered an RP-LC retention time of 727 s.

Compound `CCCCOc1ccc(-c2nc(C3CC(=O)N(c4ccc(F)c(Cl)c4)C3)no2)cc1` (stereo not drawn) yielded an RP-LC retention time of 1370 s.

Turning to `COc1cccc2c1OC1(C)CC2NC(=O)N1c1cccc(C(=O)N2CCN(c3ccccn3)CC2)c1` (stereo not drawn), the RP-LC retention time came out at 588 s.

These data come from the METLIN SMRT retention time set (Domingo-Almenara et al. 2019).
